Test results taken from patent publication US8735388B2, “Heterocyclic compounds with affinity to muscarinic receptors” (Abbvie B. V. A., priority 2007, dated 2014).
pEC50, pKi: −log10 of the molar value. Read-outs that look alike come from different tables or passages of the source.

Legend:
[1] = biological target: T1, Muscarine M4 (GPCR-A-MA-ACH M4) (Homo sapiens, UniProt P08173); experiment: Muscarine M4 receptor binding, 3H-Oxotremorine; conditions: for Ki: human M4, CHO cells, receptor binding, ligand 6 nM, 30 min/25° C., read-out: RB Musc. M4 3H-Oxotremorine pKi (converted)
T1 construct: expressed in transfected cells; host or cells: CHO cells
T1 sequence (P08173 1-479): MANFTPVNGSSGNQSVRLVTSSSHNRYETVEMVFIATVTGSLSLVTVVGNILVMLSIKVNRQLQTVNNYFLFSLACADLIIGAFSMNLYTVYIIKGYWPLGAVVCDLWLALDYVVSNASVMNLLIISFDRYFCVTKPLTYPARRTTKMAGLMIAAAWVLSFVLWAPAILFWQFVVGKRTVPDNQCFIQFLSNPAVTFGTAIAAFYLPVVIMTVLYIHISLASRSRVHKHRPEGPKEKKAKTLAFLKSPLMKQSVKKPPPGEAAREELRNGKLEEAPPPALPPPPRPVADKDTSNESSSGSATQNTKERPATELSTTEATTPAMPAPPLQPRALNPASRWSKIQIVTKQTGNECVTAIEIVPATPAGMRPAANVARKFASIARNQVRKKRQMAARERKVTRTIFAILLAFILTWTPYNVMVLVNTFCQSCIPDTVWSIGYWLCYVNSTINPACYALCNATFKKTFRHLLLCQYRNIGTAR
Outline: (§1)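 Human M1 ([3H]-pirenzepine), M3, and M4 ([3H]-4DAMP or [3H]-oxotremorine) receptor preparations incubated with radioligand and compound, first at 10 μM, then at 10-fold lower concentrations if inhibition exceeded 40%. Bound ligand separated by glass-fibre filtration and counted by scintillation. IC50 from Hill fit, converted to Ki via Cheng-Prusoff, reported as pKi.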

[2] = biological target: T1, Muscarine M4 (GPCR-A-MA-ACH M4); experiment: Muscarine M4 receptor binding, 3H-4DAMP; conditions: human M4, CHO cells, ligand 0.2 nM, 60 min/22° C., read-out: RB Musc. M4 3H-DAMP pKi (converted)
Outline: as §1

[3] = biological target: T2, Muscarine M1 (GPCR-A-MA-ACH M1) (Homo sapiens, UniProt P11229); experiment: Muscarine M1 receptor binding, 3H-Pirenzepine; conditions: human M1, CHO cells, ligand 2 nM, 60 min/22° C., read-out: RB Musc. M1 3H-Pirenzepine pKi (converted)
T2 construct: expressed in transfected cells; host or cells: CHO cells
T2 sequence (P11229 1-460): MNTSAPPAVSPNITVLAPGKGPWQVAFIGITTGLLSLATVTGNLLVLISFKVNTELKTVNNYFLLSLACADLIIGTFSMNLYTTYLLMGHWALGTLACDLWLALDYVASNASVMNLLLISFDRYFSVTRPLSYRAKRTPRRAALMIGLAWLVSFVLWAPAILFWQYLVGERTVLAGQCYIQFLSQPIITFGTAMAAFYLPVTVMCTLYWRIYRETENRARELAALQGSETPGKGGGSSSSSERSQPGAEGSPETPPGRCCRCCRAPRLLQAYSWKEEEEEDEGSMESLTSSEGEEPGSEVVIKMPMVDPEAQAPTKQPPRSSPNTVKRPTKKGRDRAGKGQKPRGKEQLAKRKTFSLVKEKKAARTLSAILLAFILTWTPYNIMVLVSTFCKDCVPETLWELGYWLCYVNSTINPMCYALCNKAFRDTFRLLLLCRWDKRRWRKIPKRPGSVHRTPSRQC
Outline: as §1

[4] = biological target: T1, Muscarine M4 (GPCR-A-MA-ACH M4); experiment: Muscarine M4 cell-based functional assay (CHO cells, Ca2+ - Aequorin luminescence); conditions: for EC50: human M4, CHO cells, agonist mode, reference agonist oxotremorine, read-out: Cell funct. Musc. M4 Agonism pEC50 (converted)
Outline: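 CHO cells expressing human M4 were exposed to compound, with Ca2+ response read by aequorin luminescence. Compounds were first tested at 1 μM, then at 10-fold lower concentrations if active; stimulation or inhibition was relative to the reference agonist. EC50/IC50 came from Hill-equation fits.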

[5] = biological target: T2, Muscarine M1 (GPCR-A-MA-ACH M1); experiment: Muscarine M1 cell-based functional assay (CHO cells, Ca2+ - FLIPR Fluorimetry); conditions: read-out: Cell funct. Musc. M1 Agonism pEC50 (converted)
[6] = Stability in human liver homogenate (metabolic stability in vitro); type: in vitro ADME; conditions: read-out: t ½
Text: DÖRJE, F., WESS, J., LAMBRECHT, G., TACKE, R., […], E. and BRANN, M. R. (1991) Antagonist binding profiles of five cloned human muscarinic receptor subtypes. J. Pharmacol. Exp. Ther., 256: 727-733. • […], M. H. (1990) Rat hippocampal muscarinic autoreceptors are similar to the M2 (cardiac) subtype: comparison with hippocampal M1, atrial M2 and ileal M3 receptors. Brit. J. Pharmacol., 99: 753-761. • PERALTA, E. G., ASHKENAZI, A., WINSLOW, J. W., SMITH, D. H., […], J. and CAPON, D. J. (1987) Distinct primary structures, ligand-binding properties and tissue-specific expression of four human muscarinic acetylcholine receptors. EMBO. J., 6: 3923-3929. Determination of Metabolic Stability (In Vitro)
Method used according to procedures described by DI, L. et al., Journal of Biomolecular Screening, Vol. 8, No. 4, 453-462 (2003).

[7] = biological target: T3, Muscarine M3 (GPCR-A-MA-ACH M3) (Homo sapiens, UniProt P20309); experiment: Muscarine M3 receptor binding
T3 construct: expressed in transfected cells; host or cells: CHO cells

[8] = biological target: T4, Muscarine M3 (GPCR-A-MA-ACH M3) (Cavia porcellus, UniProt H0W1Z3); experiment: Muscarine M3 functional assay, isolated organ (ileum), agonist and antagonist mode; parameters: species or system Guinea Pig; conditions: for EC50: read-out: Cell funct. Musc. M3 Agonism pEC50 (converted)
T4 construct: from tissue; host or cells: guinea pig ileum

[9] = biological target: T5, Muscarine M2 (GPCR-A-MA-ACH M2) (Cavia porcellus, UniProt H0VRN8); experiment: Muscarine M2 functional assay, isolated organ (left atrium, electrically paced), agonist and antagonist mode; parameters: species or system Guinea Pig; conditions: for EC50: read-out: Cell funct. Musc. M2 Agonism pEC50 (converted)
T5 construct: from tissue; host or cells: guinea pig left atrium (electrically paced)
T5 sequence (H0VRN8 1-466): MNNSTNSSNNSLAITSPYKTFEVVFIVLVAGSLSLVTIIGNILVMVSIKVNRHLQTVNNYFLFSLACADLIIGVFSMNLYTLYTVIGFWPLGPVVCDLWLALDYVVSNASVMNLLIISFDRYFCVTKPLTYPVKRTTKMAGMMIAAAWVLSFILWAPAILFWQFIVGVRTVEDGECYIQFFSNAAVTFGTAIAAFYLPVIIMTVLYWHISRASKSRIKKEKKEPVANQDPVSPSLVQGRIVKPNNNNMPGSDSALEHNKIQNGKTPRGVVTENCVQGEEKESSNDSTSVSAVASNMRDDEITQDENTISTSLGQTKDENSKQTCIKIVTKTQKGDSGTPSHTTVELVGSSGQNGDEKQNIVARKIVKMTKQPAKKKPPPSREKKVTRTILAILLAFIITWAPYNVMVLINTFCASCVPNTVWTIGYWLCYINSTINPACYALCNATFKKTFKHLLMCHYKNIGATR

[10] = biological target: T6, Muscarine M2 (GPCR-A-MA-ACH M2) (Homo sapiens, UniProt P08172); experiment: Muscarine M2 receptor binding
T6 construct: expressed in transfected cells; host or cells: CHO cells
T6 sequence (P08172 1-466): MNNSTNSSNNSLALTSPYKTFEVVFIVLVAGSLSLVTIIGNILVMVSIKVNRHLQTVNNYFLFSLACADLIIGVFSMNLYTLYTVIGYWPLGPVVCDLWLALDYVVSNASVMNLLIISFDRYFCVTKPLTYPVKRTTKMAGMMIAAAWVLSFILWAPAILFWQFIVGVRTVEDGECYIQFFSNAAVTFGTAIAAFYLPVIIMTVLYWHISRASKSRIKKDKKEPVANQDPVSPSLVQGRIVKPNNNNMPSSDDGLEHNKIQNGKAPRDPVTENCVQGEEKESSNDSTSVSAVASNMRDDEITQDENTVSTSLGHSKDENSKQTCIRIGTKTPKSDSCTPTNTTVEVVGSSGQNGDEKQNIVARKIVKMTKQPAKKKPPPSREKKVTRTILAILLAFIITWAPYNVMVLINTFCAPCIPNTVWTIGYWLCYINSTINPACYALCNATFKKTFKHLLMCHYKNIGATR

[11] = human M1, CHO cells, agonist mode, reference agonist acetylcholine

T4 sequence (H0W1Z3 1-590): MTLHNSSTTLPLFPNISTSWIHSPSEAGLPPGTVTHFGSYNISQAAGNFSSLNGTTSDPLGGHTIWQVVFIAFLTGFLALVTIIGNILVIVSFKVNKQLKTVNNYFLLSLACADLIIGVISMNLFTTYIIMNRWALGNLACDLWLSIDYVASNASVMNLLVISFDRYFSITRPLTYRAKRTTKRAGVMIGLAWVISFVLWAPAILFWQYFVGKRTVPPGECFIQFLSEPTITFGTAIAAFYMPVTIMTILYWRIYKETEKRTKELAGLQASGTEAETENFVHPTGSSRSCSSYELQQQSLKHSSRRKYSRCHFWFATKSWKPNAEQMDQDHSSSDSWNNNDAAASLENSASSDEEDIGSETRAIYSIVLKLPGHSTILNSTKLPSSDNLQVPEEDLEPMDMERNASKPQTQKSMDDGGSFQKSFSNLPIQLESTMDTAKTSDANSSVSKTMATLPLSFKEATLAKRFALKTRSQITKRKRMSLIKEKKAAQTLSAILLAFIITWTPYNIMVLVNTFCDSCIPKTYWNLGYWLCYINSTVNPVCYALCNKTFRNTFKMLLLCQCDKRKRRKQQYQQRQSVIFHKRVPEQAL
T3 sequence (P20309 whole entry): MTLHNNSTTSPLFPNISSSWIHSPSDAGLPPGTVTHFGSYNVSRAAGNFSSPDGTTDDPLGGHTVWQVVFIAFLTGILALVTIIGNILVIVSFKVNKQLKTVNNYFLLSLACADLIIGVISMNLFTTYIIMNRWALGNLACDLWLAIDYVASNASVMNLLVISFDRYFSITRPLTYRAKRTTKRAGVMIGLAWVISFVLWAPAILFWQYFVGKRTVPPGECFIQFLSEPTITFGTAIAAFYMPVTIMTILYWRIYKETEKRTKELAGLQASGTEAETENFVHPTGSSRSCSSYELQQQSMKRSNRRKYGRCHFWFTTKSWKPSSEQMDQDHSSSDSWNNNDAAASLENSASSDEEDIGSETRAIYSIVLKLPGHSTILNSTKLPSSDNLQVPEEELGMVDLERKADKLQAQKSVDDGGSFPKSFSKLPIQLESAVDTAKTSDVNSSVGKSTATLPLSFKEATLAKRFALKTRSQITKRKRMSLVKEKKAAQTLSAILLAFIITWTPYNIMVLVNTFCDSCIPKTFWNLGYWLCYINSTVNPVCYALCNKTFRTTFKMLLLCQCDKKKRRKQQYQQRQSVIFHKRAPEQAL

| Compound | Ki [1] | Ki [2] | Ki [3] | melting point | EC50 [4] | EC50 [5, 11] | half-life [6] | pKi [1] | EC50 [5] | pEC50 [4] | pKi [7] | Kb [8] | EC50 [8] | Kb [9] | EC50 [9] | pKi [10] | pKi ([7]; human M3, CHO cells, receptor binding) | Kb ([9]; read-out: Cell funct. Musc. M2 Antagonism pA2 (converted)) | pKi ([10]; human M2, CHO cells, receptor binding) |
| --- | --- | --- | --- | --- | --- | --- | --- | --- | --- | --- | --- | --- | --- | --- | --- | --- | --- | --- | --- |
| CSc1c[nH]nc1C1=CCCN(C)C1 [Compound 22A, 3-(4-Methylsulfanyl-1H-pyrazol-3-yl)-1,2,5,6-tetrahydro-1-methylpyridine] | 251 nM | 398 nM | 1580 nM | 131.5 °C | > 10000 nM |  |  |  |  |  |  |  |  |  |  |  |  |  |  |
| CN1CCC=C(c2n[nH]cc2SCCCC(F)(F)F)C1 [Compound 22B, 3-[4-(4,4,4-trifluoro-butylsulfanyl)-1H-pyrazol-3-yl]-1,2,5,6-tetrahydro-1-methylpyridine] | 398 nM | 126 nM | 501 nM |  | 501 nM | 79.4 nM | 52 min |  |  |  |  |  |  |  |  |  |  |  |  |
| CCSc1c[nH]nc1C1=CCCN(C)C1 [Compound 22D, 3-(4-Ethylsulfanyl-1H-pyrazol-3-yl)-1,2,5,6-tetrahydro-1-methylpyridine] | 316 nM | 398 nM | 1580 nM | 95 to 97 °C | > 10000 nM |  |  |  |  |  |  |  |  |  |  |  |  |  |  |
| CCCSc1c[nH]nc1C1=CCCN(C)C1 [Compound 22E, 3-(4-Propylsulfanyl-1H-pyrazol-3-yl)-1,2,5,6-tetrahydro-1-methylpyridine] | 100 nM | 316 nM | 398 nM | 111 °C | > 10000 nM |  |  |  |  |  |  |  |  |  |  |  |  |  |  |
| CCCCSc1c[nH]nc1C1=CCCN(C)C1 [Compound 22F, 3-(4-Butylsulfanyl-1H-pyrazol-3-yl)-1,2,5,6-tetrahydro-1-methylpyridine] | 63.1 nM | 39.8 nM | 316 nM | 120 to 121 °C | 126 nM | 200 nM |  |  |  |  |  |  |  |  |  |  |  |  |  |
| CCCCCSc1c[nH]nc1C1=CCCN(C)C1 [Compound 22G, 3-(4-Pentylsulfanyl-1H-pyrazol-3-yl)-1,2,5,6-tetrahydro-1-methylpyridine] | 200 nM | 50.1 nM | 200 nM | 100 to 101 °C | 316 nM | 39.8 nM | 50 min |  |  |  |  |  |  |  |  |  |  |  |  |
| CCCCSc1c[nH]nc1C1CN2CCC1CC2 (stereo not drawn) [Compound 49A, 3-(4-Butylsulfanyl-1H-pyrazol-3-yl)-1-azabicyclo[2.2.2]octane] |  | 15.8 nM | 126 nM | 162 to 164 °C |  |  |  | 7.60 | 10 nM | 7.40 |  |  |  |  |  |  |  |  |  |
| CCCCCSc1c[nH]nc1C1CN2CCC1CC2 (stereo not drawn) [Compound 49B, 3-(4-Pentylsulfanyl-1H-pyrazol-3-yl)-1-azabicyclo[2.2.2]octane] |  | 25.1 nM | 158 nM | 142 to 145 °C |  |  |  | 8.10 | 10 nM | 8.20 | 7.20 | > 1000 nM | > 1000 nM | > 1000 nM | > 1000 nM | 6.20 |  |  |  |
| CSc1c[nH]nc1C1CN2CCC1CC2 (stereo not drawn) [Compound 49C, 3-(4-Methylsulfanyl-1H-pyrazol-3-yl)-1-azabicyclo[2.2.2]octane] |  | 126 nM | 1000 nM | 145 to 147 °C |  |  |  | 6.90 | 79.4 nM | 6.30 |  |  |  |  |  |  |  |  |  |
| CCCCCCSc1c[nH]nc1C1CN2CCC1CC2 (stereo not drawn) [Compound 49F, 3-(4-Hexylsulfanyl-1H-pyrazol-3-yl)-1-azabicyclo[2.2.2]octane] |  | 50.1 nM | 251 nM | 130 °C |  |  |  | 7.90 | 794 nM | 7.90 | 7.00 | > 1000 nM | > 1000 nM | > 1000 nM | > 1000 nM | 6.40 |  |  |  |
| CC(C)CCSc1c[nH]nc1C1CN2CCC1CC2 (stereo not drawn) [Compound 49H, 3-[4-(3-Methyl-butylsulfanyl)-1H-pyrazol-3-yl]-1-azabicyclo[2.2.2]octane] |  | 39.8 nM | 158 nM | 157 to 159 °C |  |  |  | 7.50 | 50.1 nM | < 5.00 |  |  |  |  |  |  |  |  |  |
| CCCCCCSc1nc[nH]c1C1=CCCN(C)C1 [Compound 76B, 3-(5-Hexylsulfanyl-3H-imidazol-4-yl)-1,2,5,6-tetrahydro-1-methylpyridine] | 1000 nM | 501 nM | 3980 nM |  | 1000 nM | 79.4 nM |  |  |  |  |  | > 1000 nM | > 1000 nM |  | > 1000 nM |  | 5.60 | > 1000 nM | 5.20 |
